Assay results as given in patent US7157250B2, “Glutamic acid receptor and utilization thereof” (Ajinomoto Co., Inc., priority 2004, dated 2007).

Columns and labels:
[1] = test system: abdominal cavity branch of vagus nerve; experiment: Afferent activity of the abdominal cavity branch of vagus nerve after intraduodenal administration; format: in vivo, rat; conditions: 150 mM administered in the duodenum; urethane-anesthetized Wistar rats starved for 18 hours
Procedure: After starved for 18 hours, rats (Wistar strain, male, 8 to 10 week age: Japan Charles River) were laparotomized under anesthesis with urethane (1 g/kg, i.p.) and about 5 mm of the abdominal cavity branch of vagus nerve was peeled off under stereoscopic microscope. After the cutting of vagus nerve fasciculus, the vagus nerve fasciculus was placed on a small operation stage (8×6 mm) and fat and connective tissue surrounding the vagus nerve fasciculus were carefully peeled off. The terminal fiber on the organ side was placed on a platinum-made bipolar electrode and insulated from the surrounding tissue with liquid paraffin/vaseline (1:1) mixed solution. […]
The neural activity potential was amplified 10,000 folds by a micro potential amplifier (DAM-80 manufactured by WPI) and subjected to A/D conversion (Powerlab 4sp, manufactured by ADI Instruments) after noise was decreased by a Bessel filter (4-pole, […]). […] Simultaneously, while monitoring the amplified signals by an oscilloscope, a noise component is separated from a neural signal component by a window discriminator (DSE-435, manufactured by DiaMedical Corporation), integrated for 5 seconds by a Spike Counter (DSE-335P, manufactured by Nihon Kohden Corporation) and recorded by a chart recorder (WT-465G, manufactured by Nihon Kohden Corporation). […]

[2] = target: T1, mGluR4 variant (Rattus norvegicus, UniProt P31423); experiment: Measurement of function of mGluR4 variant gene by cAMP measurement in variant expressing CHO-K1 cells; format: cell-based; conditions: 1 mM; for amount of cAMP: in presence of IBMX 100 μM and forskolin 10 μM, n=3
T1 construct: A full-length cDNA of a novel mGluR4 variant was amplified again by a RT-PCR method; V5-His (only in the cloning vector's name); expressed in transfected cells
Procedure: The prepared vector (pcDNA3.1E) was introduced in CHO-K1 cell (Dainippon Pharmaceutical Co., Ltd.) by using polyFect reagent (Qiagen). After 48 hours, neomycin (600 μg/ml) was added to a culture medium (Modified Eagle Medium (αMEM) containing 10% fetal bovine serum, 100 U/ml penicillin; Nacalai Tesque) and cultivation was continued for 2 to 3 weeks to perform screening of gene-introduced cells.
The variant expressing cells obtained as described above were dispensed to 2.5×10^5 cells/well on a plate (24-well) and cultivated for 20 hours and then used for the measurement of the function of cAMP. Each plate was washed well with Dulbeco's phosphate buffer and incubated for 20 minutes. Thereafter, stimulation was performed with each drug for 10 minutes at 37° C. After the stimulation, the cells were at once treated with ice-cooled 2.5% perchloric acid (PCA) for 30 minutes, neutralized with KOH, and centrifuged to obtain a supernatant (12,000 rpm×10 min, 4° C.). The cAMP content of the supernatant was determined according to a conventional enzyme immunoassay (ELISA) by using a cAMP assay kit (Amersham).

T1 sequence (P31423 with tags, fused parts or gaps): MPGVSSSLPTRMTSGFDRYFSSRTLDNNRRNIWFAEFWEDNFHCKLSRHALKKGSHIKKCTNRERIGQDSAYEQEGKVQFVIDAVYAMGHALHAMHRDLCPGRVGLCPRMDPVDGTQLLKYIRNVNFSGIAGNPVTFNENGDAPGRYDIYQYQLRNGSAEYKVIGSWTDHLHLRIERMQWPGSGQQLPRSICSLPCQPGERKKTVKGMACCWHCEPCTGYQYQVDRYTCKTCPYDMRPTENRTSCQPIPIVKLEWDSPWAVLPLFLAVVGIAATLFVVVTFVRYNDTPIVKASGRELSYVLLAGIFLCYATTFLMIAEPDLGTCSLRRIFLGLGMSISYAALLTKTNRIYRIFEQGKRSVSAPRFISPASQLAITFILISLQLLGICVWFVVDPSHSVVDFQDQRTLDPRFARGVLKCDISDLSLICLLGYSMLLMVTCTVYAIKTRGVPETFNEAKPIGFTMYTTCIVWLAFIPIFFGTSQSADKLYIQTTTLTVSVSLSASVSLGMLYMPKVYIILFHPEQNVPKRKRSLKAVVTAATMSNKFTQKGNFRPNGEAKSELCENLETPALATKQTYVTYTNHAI

| decrease of the amount of cAMP accumulated in the mGluR4 variant expressing cell ([2]; versus sodium chloride (1 mM) added group, IBMX 100 μM and forskolin 10 μM present) | SMILES | afferent activity of the abdominal cavity branch of vagus nerve [1] | amount of cAMP [2] |
| --- | --- | --- | --- |
| – | N[C@@H](CCC(=O)[O-])C(=O)[O-].[Na+].[Na+] [MSG, sodium L-glutamate] | increased | – |
| about 19% | N[C@@H](CCC(=O)O)C(=O)O [glutamic acid] | – | 1,235 fmole |
| – | [Cl-].[Na+] [sodium chloride] | – | 1,519 fmole |
